Paper PMC5218480 (PLoS ONE, 2017)

System: MV-4-11 cells
Assay: Gene expression microarray analysis (Affymetrix PrimeView) and GSEA
Assay type: cell-based, human
Set-up: RFU PODN (11730768_x_at) / Fold change /veh PODN (11730768_x_at) / RFU LINC00158 (11744669_a_at) / Fold change /veh LINC00158 (11744669_a_at) / RFU DUSP10 (11751237_a_at) / Fold change /veh DUSP10 (11751237_a_at) / RFU ID3 (11757404_x_at) / Fold change /veh ID3 (11757404_x_at) / RFU PLEKHG5 (11737974_s_at) / Fold change /veh PLEKHG5 (11737974_s_at) / RFU LRRC4B (11730491_at) / Fold change /veh LRRC4B (11730491_at) / RFU GIMAP4 (11747438_a_at) / Fold change /veh GIMAP4 (11747438_a_at) / RFU KRT8 (11758183_x_at) / Fold change /veh KRT8 (11758183_x_at) / RFU CNN1 (11734310_a_at) / Fold change /veh CNN1 (11734310_a_at) / RFU VPS37D (11726825_at) / Fold change /veh VPS37D (11726825_at) / RFU C10orf10 (11716522_x_at) / Fold change /veh C10orf10 (11716522_x_at) / RFU KIR2DL2 /// KIR2DL4 /// KIR2DL5A /// KIR2DL5B /// KIR2DS1 /// KIR2DS2 /// KIR2DS3 /// KIR2DS4 /// KIR3DL3 /// KIR3DL3 /// KIR3DS1 (11738374_at) / Fold change /veh KIR2DL2 /// KIR2DL4 /// KIR2DL5A /// KIR2DL5B /// KIR2DS1 /// KIR2DS2 /// KIR2DS3 /// KIR2DS4 /// KIR3DL3 /// KIR3DL3 /// KIR3DS1 (11738374_at) / RFU C1QL1 (11718748_at) / Fold change /veh C1QL1 (11718748_at) / RFU TMPRSS4 (11747572_a_at) / Fold change /veh TMPRSS4 (11747572_a_at) / RFU HAMP (11756126_x_at) / Fold change /veh HAMP (11756126_x_at) / RFU RNFT2 (11725882_a_at) / Fold change /veh RNFT2 (11725882_a_at) / RFU NR4A2 (11747474_a_at) / Fold change /veh NR4A2 (11747474_a_at) / RFU ABCC12 (11746883_a_at) / Fold change /veh ABCC12 (11746883_a_at) / RFU TMEM136 (11760407_x_at) / Fold change /veh TMEM136 (11760407_x_at) / RFU CLDN22 /// WWC2 (11732394_at) / Fold change /veh CLDN22 /// WWC2 (11732394_at) / RFU HLA-DPB1 (11760878_x_at) / Fold change /veh HLA-DPB1 (11760878_x_at) / RFU SPINT1 (11716480_a_at) / Fold change /veh SPINT1 (11716480_a_at) / RFU GAP43 (11754022_s_at) / Fold change /veh GAP43 (11754022_s_at) / RFU A4GNT (11735810_at) / Fold change /veh A4GNT (11735810_at) / RFU PRB3 (11715151_x_at) / Fold change /veh PRB3 (11715151_x_at) / RFU TUBB4B (11761932_at) / Fold change /veh TUBB4B (11761932_at) / RFU CAPN14 (11732068_a_at) / Fold change /veh CAPN14 (11732068_a_at) / RFU TMCC2 (11721928_a_at) / Fold change /veh TMCC2 (11721928_a_at) / RFU IRGQ (11745062_a_at) / Fold change /veh IRGQ (11745062_a_at) / RFU FAM174B (11720279_a_at) / Fold change /veh FAM174B (11720279_a_at) / RFU TMPRSS4 (11748680_a_at) / Fold change /veh TMPRSS4 (11748680_a_at) / RFU FAM212B (11763350_a_at) / Fold change /veh FAM212B (11763350_a_at) / RFU PLEKHG5 (11743358_a_at) / Fold change /veh PLEKHG5 (11743358_a_at) / RFU ZSCAN30 (11745921_a_at) / Fold change /veh ZSCAN30 (11745921_a_at) / RFU CMKLR1 (11741424_a_at) / Fold change /veh CMKLR1 (11741424_a_at) / RFU LOC101060620 /// MAPK8IP1 (11723275_at) / Fold change /veh LOC101060620 /// MAPK8IP1 (11723275_at) / RFU SPTSSB (11747773_x_at) / Fold change /veh SPTSSB (11747773_x_at) / RFU PRSS12 (11739890_at) / Fold change /veh PRSS12 (11739890_at) / RFU BIN1 (11741810_x_at) / Fold change /veh BIN1 (11741810_x_at) / RFU WNT11 (11732464_a_at) / Fold change /veh WNT11 (11732464_a_at) / RFU C10orf10 (11716521_a_at) / Fold change /veh C10orf10 (11716521_a_at) / RFU C5orf56 (11738089_at) / Fold change /veh C5orf56 (11738089_at) / RFU CYB561 (11721691_x_at) / Fold change /veh CYB561 (11721691_x_at) / RFU ANKRD19P (11752326_a_at) / Fold change /veh ANKRD19P (11752326_a_at) / RFU OR2T12 /// OR2T33 /// OR2T8 (11738714_s_at) / Fold change /veh OR2T12 /// OR2T33 /// OR2T8 (11738714_s_at) / RFU VCAN (11748164_a_at) / Fold change /veh VCAN (11748164_a_at) / RFU JSRP1 (11732532_at) / Fold change /veh JSRP1 (11732532_at) / RFU KRTAP10-11 (11738290_x_at) / Fold change /veh KRTAP10-11 (11738290_x_at) / RFU MYO3A (11730013_a_at) / Fold change /veh MYO3A (11730013_a_at) / RFU EBF3 (11725865_a_at) / Fold change /veh EBF3 (11725865_a_at) / RFU CAMK2N1 (11719241_x_at) / Fold change /veh CAMK2N1 (11719241_x_at) / RFU C5orf56 (11738088_a_at) / Fold change /veh C5orf56 (11738088_a_at) / RFU OLFML3 (11715873_a_at) / Fold change /veh OLFML3 (11715873_a_at) / RFU LOC100653217 /// NTM (11731650_a_at) / Fold change /veh LOC100653217 /// NTM (11731650_a_at) / RFU MAPK11 (11762145_a_at) / Fold change /veh MAPK11 (11762145_a_at) / RFU FIZ1 (11724087_x_at) / Fold change /veh FIZ1 (11724087_x_at) / RFU OASL (11726364_x_at) / Fold change /veh OASL (11726364_x_at) / RFU SOX15 (11748057_x_at) / Fold change /veh SOX15 (11748057_x_at) / RFU CD79A (11719716_a_at) / Fold change /veh CD79A (11719716_a_at) / RFU HIST1H1D (11736915_at) / Fold change /veh HIST1H1D (11736915_at) / RFU CASKIN2 (11723855_a_at) / Fold change /veh CASKIN2 (11723855_a_at) / RFU LOC730098 (11760151_x_at) / Fold change /veh LOC730098 (11760151_x_at) / RFU OR4N2 (11742367_at) / Fold change /veh OR4N2 (11742367_at) / RFU PRRT2 (11749266_a_at) / Fold change /veh PRRT2 (11749266_a_at) / RFU SNX32 (11753110_a_at) / Fold change /veh SNX32 (11753110_a_at) / RFU CDHR5 (11726645_a_at) / Fold change /veh CDHR5 (11726645_a_at) / RFU RCAN1 (11760418_a_at) / Fold change /veh RCAN1 (11760418_a_at) / RFU FAM167A (11723789_a_at) / Fold change /veh FAM167A (11723789_a_at) / RFU FAM26E (11764081_at) / Fold change /veh FAM26E (11764081_at) / RFU ISYNA1 (11749810_s_at) / Fold change /veh ISYNA1 (11749810_s_at) / RFU ACY1 (11761880_at) / Fold change /veh ACY1 (11761880_at) / RFU 11764098_at / Fold change /veh 11764098_at / RFU SAMD14 (11745864_x_at) / Fold change /veh SAMD14 (11745864_x_at) / RFU NPB (11741838_a_at) / Fold change /veh NPB (11741838_a_at) / RFU TMPRSS6 (11731388_a_at) / Fold change /veh TMPRSS6 (11731388_a_at) / RFU KRTAP10-2 (11738614_at) / Fold change /veh KRTAP10-2 (11738614_at) / RFU ARHGAP8 /// PRR5-ARHGAP8 (11727945_x_at) / Fold change /veh ARHGAP8 /// PRR5-ARHGAP8 (11727945_x_at) / RFU KRTAP5-7 /// NADSYN1 (11734609_at) / Fold change /veh KRTAP5-7 /// NADSYN1 (11734609_at) / RFU RASL12 (11751679_a_at) / Fold change /veh RASL12 (11751679_a_at) / RFU CDKN2B (11736163_a_at) / Fold change /veh CDKN2B (11736163_a_at) / RFU PRF1 (11729649_at) / Fold change /veh PRF1 (11729649_at) / RFU, ZNF638 /// ZNF638-IT1 / Fold change vs veh, ZNF638 /// ZNF638-IT1 / RFU, PANK3 / Fold change vs veh, PANK3 / RFU, SH3YL1 / Fold change vs veh, SH3YL1 / RFU, ZEB2 / Fold change vs veh, ZEB2 / RFU, NRIP1 / Fold change vs veh, NRIP1 / RFU, PTTG1IP / Fold change vs veh, PTTG1IP / RFU, CAPN2 / Fold change vs veh, CAPN2 / RFU, MED14 / Fold change vs veh, MED14 / RFU, SNORA58 / Fold change vs veh, SNORA58 / RFU, C1orf63 / Fold change vs veh, C1orf63 / RFU, LRRFIP1 / Fold change vs veh, LRRFIP1 / RFU, NDUFAF7 / Fold change vs veh, NDUFAF7 / RFU, SLC12A2 / Fold change vs veh, SLC12A2 / RFU, IBTK / Fold change vs veh, IBTK / RFU, ESF1 / Fold change vs veh, ESF1 / Fold change vs veh, TMEM50B / RFU, TAOK1 / Fold change vs veh, TAOK1 / RFU, ACBD3 / Fold change vs veh, ACBD3 / RFU, TMA16 / Fold change vs veh, TMA16 / RFU, RWDD3 / Fold change vs veh, RWDD3 / RFU, BCAT1 / Fold change vs veh, BCAT1 / RFU, EDEM3 / Fold change vs veh, EDEM3 / RFU, TMEM33 / Fold change vs veh, TMEM33 / RFU, WDR75 / Fold change vs veh, WDR75 / RFU, AHCTF1 / Fold change vs veh, AHCTF1 / RFU, TFRC / Fold change vs veh, TFRC / RFU, ZDHHC17 / Fold change vs veh, ZDHHC17 / RFU, NOM1 / Fold change vs veh, NOM1 / RFU, ARL8B / Fold change vs veh, ARL8B / RFU, ZBTB11 / Fold change vs veh, ZBTB11 / RFU, TAMM41 / Fold change vs veh, TAMM41 / RFU, KIAA1704 /// LOC100996395 / Fold change vs veh, KIAA1704 /// LOC100996395 / RFU, ING1 / Fold change vs veh, ING1 / RFU, TRMT61B / Fold change vs veh, TRMT61B / RFU, FUBP3 / Fold change vs veh, FUBP3 / RFU, TP53 / Fold change vs veh, TP53 / RFU, TNKS2 / Fold change vs veh, TNKS2 / RFU, ZFP14 / Fold change vs veh, ZFP14 / RFU, ACTR2 / Fold change vs veh, ACTR2 / RFU, PPP3R1 / Fold change vs veh, PPP3R1 / RFU, PIK3R1 / Fold change vs veh, PIK3R1 / RFU, HNRNPA1 / Fold change vs veh, HNRNPA1 / RFU, RNF170 / Fold change vs veh, RNF170 / RFU, ZNF28 / Fold change vs veh, ZNF28 / RFU, RNGTT / Fold change vs veh, RNGTT / RFU, OGT / Fold change vs veh, OGT / RFU, BRD1 / Fold change vs veh, BRD1 / RFU, MARS / Fold change vs veh, MARS / RFU, ZNF655 / Fold change vs veh, ZNF655 / RFU, FAHD1 / Fold change vs veh, FAHD1 / RFU, BDP1 / Fold change vs veh, BDP1 / RFU, LRRCC1 / Fold change vs veh, LRRCC1 / RFU, ARID1A / Fold change vs veh, ARID1A / RFU, ZNF146 / Fold change vs veh, ZNF146 / RFU, ZNF330 / Fold change vs veh, ZNF330 / RFU, GPN3 / Fold change vs veh, GPN3 / RFU, C9orf123 / Fold change vs veh, C9orf123 / RFU, N4BP2L2 / Fold change vs veh, N4BP2L2 / RFU, ARFIP1 / Fold change vs veh, ARFIP1 / RFU, FAM179B / Fold change vs veh, FAM179B / RFU, BCL10 / Fold change vs veh, BCL10 / RFU, UHRF1BP1L / Fold change vs veh, UHRF1BP1L / RFU, BET1 / Fold change vs veh, BET1 / RFU, CNOT2 / Fold change vs veh, CNOT2 / RFU, ZNF268 / Fold change vs veh, ZNF268 / Fold change vs veh, ZNF507 / RFU, DGCR2 / Fold change vs veh, DGCR2 / RFU, WDSUB1 / Fold change vs veh, WDSUB1 / Fold change vs veh, HSP90B1 /// MIR3652 / RFU, ADSS / Fold change vs veh, ADSS / RFU, GK / Fold change vs veh, GK / RFU, ZNF148 / Fold change vs veh, ZNF148 / RFU, TAF9 / Fold change vs veh, TAF9 / RFU, SLC1A5 / Fold change vs veh, SLC1A5 / RFU, SLMO2 / Fold change vs veh, SLMO2 / RFU, ABCC4 / Fold change vs veh, ABCC4 / RFU, LOC101060439 /// RAP1B / Fold change vs veh, LOC101060439 /// RAP1B / RFU, RFX7 / Fold change vs veh, RFX7 / RFU, GTPBP10 / Fold change vs veh, GTPBP10 / RFU, CNEP1R1 / Fold change vs veh, CNEP1R1 / RFU, BIVM-ERCC5 /// ERCC5 / Fold change vs veh, BIVM-ERCC5 /// ERCC5 / RFU, ILF3 / Fold change vs veh, ILF3 / RFU 11762660_at / Fold change /veh 11762660_at / RFU VCAN (11757783_s_at) / Fold change /veh VCAN (11757783_s_at) / RFU DDX43 (11728927_at) / Fold change /veh DDX43 (11728927_at) / RFU KRT8 (11758188_x_at) / Fold change /veh KRT8 (11758188_x_at) / RFU NKD1 (11759106_at) / Fold change /veh NKD1 (11759106_at) / RFU SRD5A1 (11742802_a_at) / Fold change /veh SRD5A1 (11742802_a_at) / RFU TPSAB1 /// TPSB2 (11721975_s_at) / Fold change /veh TPSAB1 /// TPSB2 (11721975_s_at) / RFU GSTM3 (11746129_a_at) / Fold change /veh GSTM3 (11746129_a_at) / RFU IL23R (11737362_x_at) / Fold change /veh IL23R (11737362_x_at) / RFU TMEM51 (11727254_a_at) / Fold change /veh TMEM51 (11727254_a_at) / RFU PIWIL2 (11732686_x_at) / Fold change /veh PIWIL2 (11732686_x_at) / RFU ORM1 (11744905_x_at) / Fold change /veh ORM1 (11744905_x_at) / RFU CCDC152 (11743942_at) / Fold change /veh CCDC152 (11743942_at) / RFU ECM1 (11717891_a_at) / Fold change /veh ECM1 (11717891_a_at) / RFU IL23R (11748794_a_at) / Fold change /veh IL23R (11748794_a_at) / RFU TNFAIP8L3 (11732012_x_at) / Fold change /veh TNFAIP8L3 (11732012_x_at) / RFU MBOAT4 (11741988_at) / Fold change /veh MBOAT4 (11741988_at) / RFU 11764193_at / Fold change /veh 11764193_at / RFU TMEM53 (11763286_at) / Fold change /veh TMEM53 (11763286_at) / RFU MAGEB2 (11727129_at) / Fold change /veh MAGEB2 (11727129_at) / RFU TMEM200A (11744735_a_at) / Fold change /veh TMEM200A (11744735_a_at) / RFU CCDC152 (11751479_a_at) / Fold change /veh CCDC152 (11751479_a_at) / RFU FAM211A (11726209_a_at) / Fold change /veh FAM211A (11726209_a_at) / RFU RGS16 (11746705_a_at) / Fold change /veh RGS16 (11746705_a_at) / RFU VCAN (11755009_s_at) / Fold change /veh VCAN (11755009_s_at) / RFU RHOB (11743442_s_at) / Fold change /veh RHOB (11743442_s_at) / RFU RGS16 (11720943_a_at) / Fold change /veh RGS16 (11720943_a_at) / RFU RGS16 (11720944_at) / Fold change /veh RGS16 (11720944_at) / RFU, VPS4B / Fold change vs veh, VPS4B / RFU, CREB1 / Fold change vs veh, CREB1 / RFU, DNAJC13 / Fold change vs veh, DNAJC13 / RFU, GNAQ / Fold change vs veh, GNAQ / RFU, CDK5R1 / Fold change vs veh, CDK5R1 / RFU, ZRANB3 / Fold change vs veh, ZRANB3 / RFU, CUL4A / Fold change vs veh, CUL4A / RFU, CCNY / Fold change vs veh, CCNY / RFU, UFL1 / Fold change vs veh, UFL1 / RFU, COG3 / Fold change vs veh, COG3 / RFU, DIAPH2 / Fold change vs veh, DIAPH2 / RFU, SKA2 / Fold change vs veh, SKA2 / RFU, AFF3 / Fold change vs veh, AFF3 / RFU, LMF1 / Fold change vs veh, LMF1 / RFU, IPO11 / Fold change vs veh, IPO11 / RFU, DFFB / Fold change vs veh, DFFB / RFU, FOXP1 / Fold change vs veh, FOXP1 / RFU, CARD8 / Fold change vs veh, CARD8 / RFU, STRN3 / Fold change vs veh, STRN3 / RFU, ADK / Fold change vs veh, ADK / RFU, RASSF2 / Fold change vs veh, RASSF2 / RFU, WIPF1 / Fold change vs veh, WIPF1 / RFU, LARP1B / Fold change vs veh, LARP1B / RFU, RASA1 / Fold change vs veh, RASA1 / RFU, RB1 / Fold change vs veh, RB1 / RFU, PPFIA1 / Fold change vs veh, PPFIA1 / RFU, MAT2A / Fold change vs veh, MAT2A / RFU, CCT5 / Fold change vs veh, CCT5 / RFU, WDR92 / Fold change vs veh, WDR92 / RFU, CUX1 / Fold change vs veh, CUX1 / RFU, TTC7A / Fold change vs veh, TTC7A / RFU, TMEM135 / Fold change vs veh, TMEM135 / RFU, DEPTOR / Fold change vs veh, DEPTOR / RFU, CPM / Fold change vs veh, CPM / RFU, DNAJB6 / Fold change vs veh, DNAJB6 / RFU, CACNA2D3 / Fold change vs veh, CACNA2D3 / RFU, DTX4 / Fold change vs veh, DTX4 / RFU, TFCP2 / Fold change vs veh, TFCP2 / RFU, GMCL1 /// GMCL1P1 / Fold change vs veh, GMCL1 /// GMCL1P1 / RFU, AEBP2 / Fold change vs veh, AEBP2 / RFU, SNHG1 /// SNORD22 /// SNORD25 /// SNORD26 /// SNORD27 /// SNORD28 /// SNORD29 /// SNORD31 / Fold change vs veh, SNHG1 /// SNORD22 /// SNORD25 /// SNORD26 /// SNORD27 /// SNORD28 /// SNORD29 /// SNORD31 / Fold change (Aza/veh), C12orf56 (ProbeSet 11735607_a_at) / Fold change (ACY-1035/veh), C12orf56 (ProbeSet 11735607_a_at) / Fold change (Aza/veh), FGFR1OP (ProbeSet 11751329_s_at) / Fold change (ACY-1035/veh), FGFR1OP (ProbeSet 11751329_s_at) / Fold change (Aza/veh), VPS36 (ProbeSet 11739960_a_at) / Fold change (ACY-1035/veh), VPS36 (ProbeSet 11739960_a_at) / RFU SYPL1 (11715823_x_at) / Fold change /veh SYPL1 (11715823_x_at) / RFU IGFBP7 (11715501_s_at) / Fold change /veh IGFBP7 (11715501_s_at) / RFU REEP3 (11722064_at) / Fold change /veh REEP3 (11722064_at) / RFU IGLL1 (11728026_x_at) / Fold change /veh IGLL1 (11728026_x_at): dose or concentration left out as unconfirmed
Conditions: MV-4-11 cells, 48 hours

Nc1ccc(-c2cccs2)cc1NC(=O)c1ccc2c(c1)cc(C1CC1)n2CCN1CCOCC1 [ACY-1035]
RFU PRRT2 (11749266_a_at): 47.30 RFU
